Assay results reported in patent US6514981B1, “Methods of modulating tyrosine protein kinase function with indolinone compounds” (Sugen, Inc., priority 1998, dated 2003).

What was measured:
HUV-EC-C cells = test: HUV-EC-C assay (3H-thymidine), aFGF; assay type: cell-based; conditions: Homo sapiens, 3H-thymidine incorporation, HUVEC
Procedure: The following protocol may also be used to measure a compound's activity against PDGF-R, FGF-R or Flk-1/KDR, all of which are naturally expressed by HUV-EC cells. 1. Wash and trypsinize HUV-EC-C cells (human umbilical vein endothelial cells, (American Type Culture Collection; catalogue no. 1730 CRL). Wash with Dulbecco's phosphate-buffered saline (D-PBS; obtained from Gibco BRL, catalogue no. 14190-029) 2 times at about 1 mL/10 CM^2 of tissue culture flask. Trypsinize with 0.05% trypsin-EDTA in non-enzymatic cell dissociation solution (Sigma Chemical Company; catalogue no. C-1544). The 0.05% trypsin was made by diluting 0.25% trypsin/1 mM EDTA (Gibco; catalogue no. 25200-049) in the cell dissociation solution. Trypsinize with about 1 mL/25-30 cm^2 of tissue culture flask for about 5 minutes at 37° C. After cells have detached from the flask, add an equal volume of assay medium and transfer to a 50 mL sterile centrifuge tube (Fisher Scientific; catalogue no. 05-539-6). 2. Wash the cells with about 35 mL assay medium in the 50 mL sterile centrifuge tube by adding the assay medium, centrifuge for 10 minutes at approximately 200×g aspirate the supernatant and resuspend with 35 mL D-PBS. Repeat the wash two more times with D-PBS, resuspend the cells in about 1 mL assay medium/15 cm^2 of tissue culture flask. […]

EGFR = EGFR (Homo sapiens, UniProt P00533); test: Biochemical EGFR assay (ELISA, A431 cell lysate); parameters: Add 7 μg A431 cell lysate per well (EGFR source); endogenous in cells; host or cells: A431 cell lysate, captured on 05-101 anti-EGFR antibody; conditions: A431 cell lysate as EGFR source
Sequence of EGFR (P00533 25-1210): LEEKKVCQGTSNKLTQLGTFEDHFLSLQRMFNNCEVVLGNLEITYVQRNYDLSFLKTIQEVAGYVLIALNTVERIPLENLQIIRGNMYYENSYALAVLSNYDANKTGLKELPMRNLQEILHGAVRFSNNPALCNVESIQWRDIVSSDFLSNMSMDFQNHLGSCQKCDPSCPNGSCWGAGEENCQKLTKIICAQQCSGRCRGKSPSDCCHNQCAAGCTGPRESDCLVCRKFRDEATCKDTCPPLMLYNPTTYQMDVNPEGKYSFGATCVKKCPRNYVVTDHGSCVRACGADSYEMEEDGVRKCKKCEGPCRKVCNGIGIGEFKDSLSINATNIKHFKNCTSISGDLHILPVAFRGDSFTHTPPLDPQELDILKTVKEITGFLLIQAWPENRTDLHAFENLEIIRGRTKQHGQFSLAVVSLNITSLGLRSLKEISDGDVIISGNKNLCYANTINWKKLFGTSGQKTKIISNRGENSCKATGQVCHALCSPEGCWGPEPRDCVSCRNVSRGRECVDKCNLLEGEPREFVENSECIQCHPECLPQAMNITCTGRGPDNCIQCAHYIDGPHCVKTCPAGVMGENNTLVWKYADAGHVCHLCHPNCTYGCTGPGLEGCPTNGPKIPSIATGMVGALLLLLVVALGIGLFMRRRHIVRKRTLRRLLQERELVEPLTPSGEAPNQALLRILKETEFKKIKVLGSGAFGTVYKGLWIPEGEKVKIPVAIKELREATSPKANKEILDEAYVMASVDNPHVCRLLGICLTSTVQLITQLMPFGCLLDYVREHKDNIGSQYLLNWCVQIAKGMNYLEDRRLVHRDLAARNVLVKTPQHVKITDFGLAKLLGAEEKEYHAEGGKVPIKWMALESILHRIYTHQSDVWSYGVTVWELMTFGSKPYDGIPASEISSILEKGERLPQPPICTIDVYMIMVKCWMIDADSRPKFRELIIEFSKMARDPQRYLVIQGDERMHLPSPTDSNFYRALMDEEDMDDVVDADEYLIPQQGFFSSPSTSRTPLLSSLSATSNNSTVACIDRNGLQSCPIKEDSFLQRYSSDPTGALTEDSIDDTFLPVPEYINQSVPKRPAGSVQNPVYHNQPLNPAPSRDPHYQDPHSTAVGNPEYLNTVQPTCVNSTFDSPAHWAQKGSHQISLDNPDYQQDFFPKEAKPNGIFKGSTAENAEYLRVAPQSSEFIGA
Text: The following protocol describes the procedures used to analyze protein tyrosine kinase activity on the EGFR in an Elisa. The procedure also describes the protocol for the initial screening of drugs for inhibition or activation of protein tyrosine kinase activity.
A431 cells are available from a variety of commercial sources and may be used lysed using conventional methods known to those skilled in the art or as described for lysis of the 3T3 cells in the EGF cellular assay described herein. −80° C., 1 mL aliquots
1. Coat Corning 96-well elisa plates with 0.5 μg per well 05-101 antibody. Bring final volume to 100 μL per well with PBS. Coat plates overnight at 4° C.
5. Add 7 μg A431 cell lysate per well (EGFR source). Add PBS to final volume of 100 μL per well. Incubate 30 minutes while shaking.
7. At this point, drugs or extracts are added to the wells. Dilute drugs/extracts 1:100 (unless specified otherwise) in TBS+10% DMSO in 96-well polypropylene plates. Add 120 μL TBS to ELISA plate containing captured EGFR. […] Incubate plate 30 minutes while shaking.
8. […] (150 μL final volume in well with 3 μM ATP/5 mM MnCl2 final concentration in well.) Incubate 5 minutes while shaking vigorously.
9. […]
17. Read assay on Dynatech MR7000 elisa reader.
The IC50 values measured in the above assay for the compound of formula VI are depicted in Table 2: […]

Cc1cc(/C=C2/C(=O)Nc3ccccc32)c(C)c2c1[nH]c1ccccc12 [VI]
IC50 (HUV-EC-C cells): 0.63 µM
IC50 (EGFR): > 50000 nM
